In patent US20120308673A1, “COMPOSITION COMPRISING THE EXTRACT OF PRUNELLA VULGARIS L. FOR PREVENTING AND TREATING ADHD DISEASE AND THE USE THEREOF” (priority 2009, published 2012):

Columns and labels:
SHR animal model [1] = test: Effect on alternation behavior of SHR animal model (modified Y-maze test); assay type: in vivo, rat; details: 8 min period, dose dependent, p<0.05, FIG. 3
Experimental: To test the inhibitory effect of the extract of […] prepared in Example 1 on the alternation behavior of SHR animals, following modified Y-maze test was performed according to the procedure disclosed in the literature (Sarter M., et al., Attenuation of scopolamine-induced impairment of spontaneous alternation by antagonist but not agonist and agonist beta-carbolines, (1988), Psychopharmacology (Berl). 94:491-495; Kim D. H. et al, Gomisin A improves scopolamine-induced memory impairment in mice, (2006), Eur. J. Pharmacol., 542:129-235).
The Y-maze test was conducted in a three-arm maze with angles of 120° between the arms designates as A, B and C respectively, which were 42 cm long and 3 cm wide with walls that were 12 cm high each. The maze floor and walls were constructed from dark opaque polyvinyl plastic. Mice were initially placed within one arm and the sequence and number of arm entries were recorded manually for each mouse over an 8 min period. The percentage of triads in which all the arms were represented, i.e., ABC, CAB or BCA but not BAB, was recorded as an ‘alternation’ to estimate short-term memory. Control group animals received 0.9% saline solution and scopolamine (1 mg/kg, i.p.) or vehicle was introduced to induce memory impairment 30 mins before the test. […] The alternation score (%) for each mouse was calculated according to following math formula 1: […]

SHR animal model [2] = test: Effect on hyperactivity of SHR animal model (total movement distance and duration in test box); assay type: in vivo, rat; details: 3 mg/kg intraperitoneally, 30 mins after treatment, recorded for 10 mins
Experimental: To test the inhibitory effect of the extract of […] prepared in Example 1 on the hyperactivity of SHR animals, following test was performed according to the procedure disclosed in the literature (Kong, W. X et al., Effect on taurine on rat behaviors in three anxiety models, (2006), Pharmacology Biochem., Behavior 83:271-276; Arulmozhi D. K. et al, Pharmacological studies of the aqueous extract of Sapindus trifoliatus on central nervous system: possible ant-migraine mechanism, J. Ethnophamacol., 97:491-496).
The rats were acclimated with the environment for 1 week and with apparatus more than once for 10 mins prior to test. PV70E and PVW prepared in Example 1 used as test groups as well as methylphenidate (Johnson Mattey Public Limited Co.) used as a positive control were intraperitoneally administered into mice in a dose of 3 mg/kg.
30 mins after the treatment with test samples, the SHR mice, i.e., ADHD animal models, and normal mice used as negative control were placed on the test box to examine the movement of mice and to determine the total movement distance and total movement duration of the mice for 10 mins using by analysis apparatus (EthoVision system; Noldus IT b.v., Netherland).

COC(=O)C(c1ccccc1)C1CCCCN1 (stereo not drawn) [methylphenidate]
alternation behavior of SHR (SHR animal model [1]): inhibiting effect | general movement of SHR (total movement distance and rearing number) (SHR animal model [2]; SHR, FIGS. 1 and 2): did not affect | movement of normal mice (SHR animal model [2]; normal mice): increased the movement
